Entries after “also recorded” stand apart in the source; their conditions may differ.
What was measured:
LDH-A [1] = target: T1, LDH-A (Homo sapiens, UniProt P00338); experiment: Enzyme kinetics, NADH-competition, mixed-model inhibition fit; format: biochemical
HeLa cells [2] = experiment: Lactate production inhibition in HeLa cells quantified by GC-MS; format: cell-based, human; details: 8 hours; for effect on lactate production: 50-200 μM
HeLa cells [3] = experiment: Anticancer potency, 72 hour Sulforhodamine B assay; format: cell-based, human; details: for cell death: HeLa cells, 100 μM, 72 hours; for IC50: Homo sapiens, HeLa, 72 h, read-out: Anticancer potency, 72 hour IC50
WT-MEF = experiment: Growth inhibition in non-cancerous immortalized cell line, SRB assay; format: cell-based; details: 100 μM, 72 hours, preliminary
HeLa cells [4] = experiment: Intracellular concentration / cellular uptake by LC-MS; format: cell-based, human; details: 500 μM, 30 minutes
Stability [5] = format: in vitro ADME, human; details: 30 min at 37 °C, 100 μM
Stability [6] = format: in vitro ADME; details: RPMI 1640 growth media, 30 min at 37 °C, 100 μM
LDH-A [7] = target: T1, LDH-A; experiment: Enzyme inhibition of purified human LDH-A; format: biochemical
LDH-A [8] = details: read-out: LDH-A IC50 reported in the literature; cited from earlier work
[9] = cited from earlier work

| SMILES | Ki (LDH-A [1]) [µM] | cell death (HeLa cells [3]) [%] | IC50 (HeLa cells [3]) [µM] | cell death (WT-MEF) | cleavage in HeLa cell lysate (Stability [5]) | stability / cleavage in culture media (Stability [6]) | cellular uptake in HeLa cells (HeLa cells [4]; LC-MS) | effect on lactate production (HeLa cells [2]) | other results |
| --- | --- | --- | --- | --- | --- | --- | --- | --- | --- |
| O=C(O)c1cc2c(C(F)(F)F)cc(-c3ccccc3)cc2n1O [Compound 1, 1-Hydroxy-6-phenyl-4-(trifluoromethyl)-1H-indol-2-carboxylic acid] | 10.8 | 100 | 43.8 | less than 20% | – | – | – | – | lactate production relative to vehicle (HeLa cells [2]; 100 μM): 70% |
| COC(=O)c1cc2c(C(F)(F)F)cc(-c3ccccc3)cc2n1O [Compound 2, methyl 1-hydroxy-6-phenyl-4-(trifluoromethyl)-1H-indol-2-carboxylate] | – | 100 | 33.4 | approximately 70% | not appreciably cleaved | not appreciably cleaved | – | – | concentration in HeLa cell lysate solution relative to free acid 1 (HeLa cells [4]; LC-MS): ~ 4 fold; cleavage of methyl ester following cellular incubation (HeLa cells [4]; HeLa cells): No cleavage; lactate production relative to vehicle (HeLa cells [2]; 200 μM): ~ 20% |
| Cc1nc2ccc(NC(=O)CCNC(=O)CCCc3ccc(CC(C(=O)O)C(=O)O)cc3)cc2s1 [Compound 3, 2-(4-(4-((3-((2-methylbenzo[d]thiazol-6-yl)amino)-3-oxopropyl)amino)-4-oxobutyl)benzyl)malonic acid, reference compound] | 0.23 | – | > 500 | – | – | – | could not be detected in lysate | did not show any effect | IC50 (LDH-A [7]): 1 ± 0.2 µM; IC50 (LDH-A [8]): 0.5 µM; activity in cell-based assays (literature) [9]: inactive |
| COC(=O)C(Cc1ccc(CCCC(=O)NCCC(=O)Nc2ccc3nc(C)sc3c2)cc1)C(=O)OC [Compound 4, dimethyl 2-(4-(4-((3-((2-methylbenzo[d]thiazol-6-yl)amino)-3-oxopropyl)amino)-4-oxobutyl)benzyl)malonate, reference compound] | – | – | 75.4 | – | substantially cleaved to compound 5 | stable; also recorded: not appreciably cleaved | efficient cell uptake | significant reduction | LDH-A (IC50) [NADH] (LDH-A [7]; NADH-competition assay: 1440 μM sodium pyruvate, 40 μM NADH, mean ± SD): lack of inhibitory potency; monohydrolysis to monoester 5 in HeLa cell lysate (Stability [5]): ~ 50% |
| COC(=O)C(Cc1ccc(CCCC(=O)NCCC(=O)Nc2ccc3nc(C)sc3c2)cc1)C(=O)O (stereo not drawn) [Compound 5, 3-Methoxy-2-(4-(4-((3-((2-methylbenzo[d]thiazol-6-yl)amino)-3-oxopropyl)amino)-4-oxobutyl)benzyl)-3-oxopropanoic acid] | – | – | – | – | – | – | no direct cell uptake | failed to result in any substantial reduction | cell death in HeLa cells (HeLa cells [3]; 72 hour treatment, up to 200 μM): No substantial cell death |
